From ChEMBL document CHEMBL3507680, “University of Dundee, Gates Library screen for HepG2 cell viability”

Assay: Human HepG2 cell viability assay in 384 well format
Type: toxicity, cell-based
Parameters: dose 125 nL, time 70.5 hour; concentration not given beside the values
Conditions: HepG2 cells, read-out: Inhibition

SMILES	cytotoxicity at 70.5 h
CC(C(=O)NCc1ccnc(N2CCCC2)c1)n1cncn1 (stereo not drawn)	-1.47%
COCC(C)(CCO)NC(=O)Nc1c(F)cccc1Br (stereo not drawn)	1.51%
CCn1nc2c(cc1=O)CN(Cc1nc(-c3ccsc3)no1)CC2	-22.4%
CCCn1cc(NC(=O)NCC2CCS(=O)(=O)C2)nn1 (stereo not drawn)	-9.78%
Cc1n[nH]c(C2CN(C(=O)CCc3cscn3)CCO2)n1 (stereo not drawn)	-1.63%
CN(C)C(=O)CN1C[C@@H]2CC[C@H](C1)N(C/C=C/c1ccc(F)cc1)C2	-0.0436%
COc1ccccc1CN1CC[C@H]2C[C@@H](C(=O)N3CCCC3)O[C@H]2C1	-7.49%
N#Cc1ccc(OCCNCCn2cccn2)cc1	-10.2%
COc1ccc([C@@H]2C[C@H](NC(C)=O)C[C@H](CCc3ccccc3)O2)cn1	-4.78%
COc1cccc2cc(CNC(C)(C)C(=O)N3CCC(O)CC3)oc12	14.1%
COc1ccc(S(=O)(=O)N2CCOC(Cn3ccnc3)C2)cc1 (stereo not drawn)	-8.46%
CN(Cc1cnn(C)c1)C(=O)Cn1c(CS(C)(=O)=O)nc2ccccc21	-12.9%
O[C@@H]1CN(Cc2ccc(F)cc2)CC[C@H]1NCc1ccccn1	15.4%
Cc1oc(C)c(C(=O)NS(=O)(=O)c2ccc3c(c2)OCCCO3)c1C	-27.5%
Oc1ccccc1-c1cc(-c2nc(C3CC3)n[nH]2)[nH]n1	-6.44%
Cn1cccc1C(=O)N1CCc2ncc(Cn3cccn3)n2CC1	16.9%
O=C([C@H]1C[C@H]2OCC[C@H]2N(Cc2ccco2)C1)N1CCCO1	-14.8%
CC(OCC1CC1)C(=O)Nc1cccc(C(=O)Nc2ccccn2)c1 (stereo not drawn)	-8.38%
O=C(NC1CC1)c1nc(COc2ccc3c(c2)OCO3)no1	-9.12%
CC(C)c1nnc2n1CC(CNC/C=C/c1ccccc1)CC2 (stereo not drawn)	-7.41%
CCC(NC(=O)c1ccc(OC)nn1)c1nc(C(F)(F)F)cs1 (stereo not drawn)	-6.03%
CC(C)(C)n1cc(C2=CCN(CCc3ccccn3)CC2)cn1	-5.94%

SMILES	cytotoxicity at 70.5 h
O=C(c1ccco1)N1CCC2(CCC(=O)N2Cc2ccncc2)CC1	-2.64%
CCc1ccsc1C(=O)N1CCN(C(=O)CC(F)(F)F)CC1	3.81%
COCc1nc(C(=O)OCC2CCN(c3ccccc3)C2)cs1 (stereo not drawn)	-88.7%
CC1c2ncc(CN3CCN(C)CC3)n2CCN1Cc1cnn(C)c1 (stereo not drawn)	13.6%
OCCNc1nc(NCc2cccnc2)nc2nccnc12	16.3%
Cc1cc(Cl)ccc1-n1ncc(C(=O)NCC2COC(C)(C)O2)c1N (stereo not drawn)	23.9%
CCOCC(=O)NCC1Cn2nnc(-c3cccc(F)c3)c2CO1 (stereo not drawn)	-4.09%
Cc1nc(C)n(Cc2cccc(NC(=O)N(C)CCC(C)O)c2)n1 (stereo not drawn)	-7.61%
Cc1ccc(C(=O)N2CCC3(CC2)c2ccccc2[C@@H](N)[C@@H]3O)c(=O)[nH]1	-7.97%
Cc1nc(C)n(CC2CCCN2CC(=O)Nc2cccnc2)n1 (stereo not drawn)	-0.954%
CN(Cc1n[nH]c(=O)n1CCc1ccccc1F)S(C)(=O)=O	-1.83%
N#Cc1ccc(CN2CCCN(C(=O)CCn3cncn3)CC2)cc1	-10.9%
COCCOCC(=O)N1C[C@H]2CC[C@@H]1CN(C1Cc3ccccc3C1)C2	-9.96%
O=C(c1cc2c([nH]c1=O)CCC2)N1CCCC1c1ccccn1 (stereo not drawn)	-2.83%
Cc1noc(CN(Cc2ccc3c(c2)OCO3)C2CCCC2)n1	-13%
CCSCCNC(=O)C(c1cccc(C)c1)N(C)C (stereo not drawn)	35.5%
CN(C)CC(=O)N1CCC2(CCN(Cc3cccc(F)c3)CC2)C1	-8.05%
Cc1cc(C)nc(Nc2cccc(C3CCCN(C)C3)n2)n1 (stereo not drawn)	0.625%
Cc1ccc(C(=O)N2C[C@@H](C(=O)O)[C@H](c3ccncc3)C2)cc1F	-5.6%
Cc1nccnc1N1CCC2(CCCN(C3CCOCC3)C2=O)C1 (stereo not drawn)	7.43%
Cc1nc(C)n(C2CCCN(C(=O)c3nc(C)n4ccccc34)C2)n1 (stereo not drawn)	-9.2%
